The target in experiment [1] is T1, Ubiquitin-conjugating enzyme E2 N (Homo sapiens, UniProt P61088).
T1 sequence (P61088 whole entry): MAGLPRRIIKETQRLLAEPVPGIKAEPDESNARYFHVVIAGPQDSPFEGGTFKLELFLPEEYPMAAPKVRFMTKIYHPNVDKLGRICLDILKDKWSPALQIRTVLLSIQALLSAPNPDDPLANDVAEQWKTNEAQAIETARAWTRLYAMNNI
It is filed as functional.

Experiment [2] concerns the target T1, Ubiquitin-conjugating enzyme E2 N. It counts as functional. The source holds these as a separate data set.
The next experiment concerns the target T2, Bcl-2-related protein A1 (Mus musculus, UniProt Q07440).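 Further: confirmatory dose–response counterscreen on Bfl-1, used to check hits from a UBC13 polyubiquitin inhibitor campaign.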
T2 sequence (Q07440 whole entry): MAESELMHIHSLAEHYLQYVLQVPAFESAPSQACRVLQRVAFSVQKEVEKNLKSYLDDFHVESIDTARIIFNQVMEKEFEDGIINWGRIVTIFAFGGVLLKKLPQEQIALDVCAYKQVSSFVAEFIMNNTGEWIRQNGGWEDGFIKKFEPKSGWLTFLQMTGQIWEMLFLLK
It counts as functional.

A short description of experiment [3]: Counterscreen for AddAB inhibitors: absorbance-based bacterial cell-based high throughput dose response assay for inhibitors of bacterial viability. [Related pubchem assays (depositor defined):AID435030, AID449728, AID449731, AID488942, AID488955, AID488956]. It counts as functional. (In general: Counterscreens check selectivity or assay interference.)
For a further experiment, the target named is Exodeoxyribonuclease V (Escherichia coli (strain K12), UniProt P04993+P07648+P08394). The experiment is described as follows: E. coli RecBCD inhibitors, dose response, counter-screen for AddAB inhibitor project, absorbance, V66 E. coli, mutant T4 phage (AID 492957). It is filed as functional, cell-based, Escherichia coli str. K-12 substr. MG1655.
For experiment [4], the target named is T3, Alkaline phosphatase, tissue-nonspecific isozyme (Homo sapiens, UniProt P05186).
T3 sequence (P05186 whole entry): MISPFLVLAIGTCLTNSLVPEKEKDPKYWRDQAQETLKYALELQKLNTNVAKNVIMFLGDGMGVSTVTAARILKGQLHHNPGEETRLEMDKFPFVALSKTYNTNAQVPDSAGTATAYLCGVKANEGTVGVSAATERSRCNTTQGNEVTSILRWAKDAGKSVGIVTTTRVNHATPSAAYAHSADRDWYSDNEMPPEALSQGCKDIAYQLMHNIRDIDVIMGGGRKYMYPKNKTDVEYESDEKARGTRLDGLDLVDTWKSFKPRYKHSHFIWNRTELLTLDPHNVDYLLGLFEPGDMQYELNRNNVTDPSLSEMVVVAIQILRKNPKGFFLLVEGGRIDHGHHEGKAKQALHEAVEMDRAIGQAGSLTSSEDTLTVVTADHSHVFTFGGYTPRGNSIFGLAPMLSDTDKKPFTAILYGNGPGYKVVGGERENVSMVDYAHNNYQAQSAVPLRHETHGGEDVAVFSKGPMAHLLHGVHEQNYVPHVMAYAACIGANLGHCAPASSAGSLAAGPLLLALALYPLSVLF
Nature of the experiment: human TNAP enzyme inhibitors, SAR follow-up, biochemical, luminescent, dose response (AID 1056).

Experiment [5] has as its target Glyceraldehyde-3-phosphate dehydrogenase (Homo sapiens, UniProt P04406).
The target in experiment [6] is Intestinal-type alkaline phosphatase (Mus musculus, UniProt P24822). Nature of the experiment: PubChem AID 488785. It counts as functional.
Experiment [7] concerns the target Intestinal-type alkaline phosphatase (Homo sapiens, UniProt P09923). Nature of the experiment: inhibition of human intestinal alkaline phosphatase – biochemical, dose response (AID 488876). It is filed as functional.
Experiment [8] deals with T3, Alkaline phosphatase, tissue-nonspecific isozyme. The experiment is described as follows: TNAP enzyme inhibition by screening hits, dose response, selectivity assay for mouse IAP inhibitor project, biochemical, human TNAP, uHTS hits (AID 488906). It counts as functional.
Experiment [9] addresses DNA dC->dU-editing enzyme APOBEC-3G (Homo sapiens, UniProt Q9HC16). It counts as functional.
The target in experiment [10] is DNA dC->dU-editing enzyme APOBEC-3A (Homo sapiens, UniProt P31941). The experiment is described as follows: Dose Response confirmation of small molecule APOBEC3A DNA Deaminase Inhibitors via a fluorescence-based single-stranded DNA deaminase assay. [Related pubchem assays (depositor defined):AID493011, AID493024]. It is filed as functional.

Structures are written as SMILES. Active and inactive are the calls of the source. For most assays here, no stated cut-off is given here; in the data, actives have a measured IC50 and inactives only a lower limit.

Chain of Intestinal-type alkaline phosphatase (Mus musculus, UniProt P24822) (P24822 whole entry): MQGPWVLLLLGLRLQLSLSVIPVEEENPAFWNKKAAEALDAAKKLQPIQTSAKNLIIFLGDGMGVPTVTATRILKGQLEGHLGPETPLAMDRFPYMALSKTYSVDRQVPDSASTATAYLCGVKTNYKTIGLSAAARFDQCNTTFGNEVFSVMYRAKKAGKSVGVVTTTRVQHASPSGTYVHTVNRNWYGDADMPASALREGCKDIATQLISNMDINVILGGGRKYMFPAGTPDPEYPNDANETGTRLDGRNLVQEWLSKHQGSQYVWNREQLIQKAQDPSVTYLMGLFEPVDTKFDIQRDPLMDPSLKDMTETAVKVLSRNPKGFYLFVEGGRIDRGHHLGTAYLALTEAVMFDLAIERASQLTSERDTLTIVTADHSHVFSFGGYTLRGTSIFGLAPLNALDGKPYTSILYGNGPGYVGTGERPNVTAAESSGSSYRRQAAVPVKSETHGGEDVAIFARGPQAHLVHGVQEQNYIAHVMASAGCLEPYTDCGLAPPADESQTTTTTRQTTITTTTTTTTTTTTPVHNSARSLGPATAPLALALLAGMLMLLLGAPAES
Chain of Intestinal-type alkaline phosphatase (Homo sapiens, UniProt P09923) (P09923 whole entry): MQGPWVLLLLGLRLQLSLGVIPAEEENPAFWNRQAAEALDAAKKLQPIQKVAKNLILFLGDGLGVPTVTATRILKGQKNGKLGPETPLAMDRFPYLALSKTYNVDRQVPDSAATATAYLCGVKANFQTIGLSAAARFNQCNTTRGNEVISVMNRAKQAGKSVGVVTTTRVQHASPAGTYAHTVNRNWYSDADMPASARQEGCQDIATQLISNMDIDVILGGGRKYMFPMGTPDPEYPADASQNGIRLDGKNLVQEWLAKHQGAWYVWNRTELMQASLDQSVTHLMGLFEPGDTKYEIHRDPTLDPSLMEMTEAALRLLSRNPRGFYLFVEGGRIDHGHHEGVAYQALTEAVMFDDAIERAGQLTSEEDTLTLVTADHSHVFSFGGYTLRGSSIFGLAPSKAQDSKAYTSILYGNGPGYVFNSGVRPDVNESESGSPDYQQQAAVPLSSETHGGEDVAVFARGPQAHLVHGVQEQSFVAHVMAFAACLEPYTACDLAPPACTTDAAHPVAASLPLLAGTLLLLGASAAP
Chain of DNA dC->dU-editing enzyme APOBEC-3G (Q9HC16 whole entry): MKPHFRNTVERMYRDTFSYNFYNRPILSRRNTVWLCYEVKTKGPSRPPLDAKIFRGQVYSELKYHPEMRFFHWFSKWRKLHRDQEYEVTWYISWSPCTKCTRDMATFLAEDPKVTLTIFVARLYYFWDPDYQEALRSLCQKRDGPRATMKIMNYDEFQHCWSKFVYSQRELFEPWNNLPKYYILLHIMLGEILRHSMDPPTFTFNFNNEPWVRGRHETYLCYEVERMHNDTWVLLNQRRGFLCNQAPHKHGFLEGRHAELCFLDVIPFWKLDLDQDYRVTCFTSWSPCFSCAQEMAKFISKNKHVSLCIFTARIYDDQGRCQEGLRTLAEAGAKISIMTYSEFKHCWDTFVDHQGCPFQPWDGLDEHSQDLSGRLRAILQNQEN
Chain of DNA dC->dU-editing enzyme APOBEC-3A (P31941 whole entry): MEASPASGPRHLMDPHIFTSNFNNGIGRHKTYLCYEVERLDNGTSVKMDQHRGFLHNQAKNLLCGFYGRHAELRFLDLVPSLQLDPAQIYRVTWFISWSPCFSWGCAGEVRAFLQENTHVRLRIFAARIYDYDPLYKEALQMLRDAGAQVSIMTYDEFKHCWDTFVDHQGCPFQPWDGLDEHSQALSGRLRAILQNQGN
Chain of Glyceraldehyde-3-phosphate dehydrogenase (P04406 whole entry): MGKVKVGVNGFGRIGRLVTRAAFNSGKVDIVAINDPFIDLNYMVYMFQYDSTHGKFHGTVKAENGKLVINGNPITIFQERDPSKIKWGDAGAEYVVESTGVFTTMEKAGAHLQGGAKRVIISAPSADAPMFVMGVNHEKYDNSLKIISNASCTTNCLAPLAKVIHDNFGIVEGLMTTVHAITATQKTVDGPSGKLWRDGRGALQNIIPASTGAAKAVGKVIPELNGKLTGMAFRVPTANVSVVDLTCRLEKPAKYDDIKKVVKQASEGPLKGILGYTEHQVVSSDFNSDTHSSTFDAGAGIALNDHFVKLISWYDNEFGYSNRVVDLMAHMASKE
Chain of Exodeoxyribonuclease V (P04993 whole entry): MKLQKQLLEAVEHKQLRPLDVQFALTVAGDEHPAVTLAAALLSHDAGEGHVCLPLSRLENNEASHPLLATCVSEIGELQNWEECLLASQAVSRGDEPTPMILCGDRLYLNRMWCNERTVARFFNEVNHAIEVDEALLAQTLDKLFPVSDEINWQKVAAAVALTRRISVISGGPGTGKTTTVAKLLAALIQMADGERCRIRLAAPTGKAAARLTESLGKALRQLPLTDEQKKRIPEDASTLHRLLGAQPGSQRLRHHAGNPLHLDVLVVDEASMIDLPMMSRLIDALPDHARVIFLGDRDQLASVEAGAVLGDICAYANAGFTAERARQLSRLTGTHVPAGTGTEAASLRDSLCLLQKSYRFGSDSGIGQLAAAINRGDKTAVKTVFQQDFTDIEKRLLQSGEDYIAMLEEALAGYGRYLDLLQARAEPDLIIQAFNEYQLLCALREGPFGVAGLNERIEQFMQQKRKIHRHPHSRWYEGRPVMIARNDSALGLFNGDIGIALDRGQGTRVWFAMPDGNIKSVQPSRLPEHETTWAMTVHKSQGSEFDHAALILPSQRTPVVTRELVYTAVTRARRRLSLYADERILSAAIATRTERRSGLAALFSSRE
Chain of Exodeoxyribonuclease V (P07648 whole entry): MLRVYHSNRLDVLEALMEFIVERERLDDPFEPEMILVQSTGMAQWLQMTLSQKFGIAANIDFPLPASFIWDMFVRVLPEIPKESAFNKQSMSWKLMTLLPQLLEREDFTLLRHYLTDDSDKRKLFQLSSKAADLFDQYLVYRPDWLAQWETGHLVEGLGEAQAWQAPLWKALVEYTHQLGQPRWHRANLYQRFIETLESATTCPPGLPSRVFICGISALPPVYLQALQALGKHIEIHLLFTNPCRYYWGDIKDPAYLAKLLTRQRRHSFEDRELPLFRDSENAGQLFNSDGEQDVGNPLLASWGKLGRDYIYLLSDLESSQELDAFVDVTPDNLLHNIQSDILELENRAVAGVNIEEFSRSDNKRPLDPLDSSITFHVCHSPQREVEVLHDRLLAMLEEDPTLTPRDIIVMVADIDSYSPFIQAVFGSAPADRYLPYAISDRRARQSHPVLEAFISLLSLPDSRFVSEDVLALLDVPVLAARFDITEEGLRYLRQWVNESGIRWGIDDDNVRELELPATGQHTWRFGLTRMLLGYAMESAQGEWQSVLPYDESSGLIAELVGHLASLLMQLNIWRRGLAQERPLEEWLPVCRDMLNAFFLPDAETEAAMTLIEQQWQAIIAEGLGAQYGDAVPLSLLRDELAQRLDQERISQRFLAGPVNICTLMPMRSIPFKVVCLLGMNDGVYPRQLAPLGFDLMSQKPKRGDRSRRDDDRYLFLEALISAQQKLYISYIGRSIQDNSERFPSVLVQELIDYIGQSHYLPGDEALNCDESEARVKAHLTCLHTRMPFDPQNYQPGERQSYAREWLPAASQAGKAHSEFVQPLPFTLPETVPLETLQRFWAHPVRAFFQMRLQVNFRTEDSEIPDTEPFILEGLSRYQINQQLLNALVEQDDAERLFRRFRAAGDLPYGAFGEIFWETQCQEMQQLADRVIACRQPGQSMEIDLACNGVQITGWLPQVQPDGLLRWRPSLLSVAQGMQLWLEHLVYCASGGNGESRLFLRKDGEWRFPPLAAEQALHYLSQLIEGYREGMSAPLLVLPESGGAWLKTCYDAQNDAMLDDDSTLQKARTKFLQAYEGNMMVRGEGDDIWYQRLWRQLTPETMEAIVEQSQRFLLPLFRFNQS
Chain of Exodeoxyribonuclease V (P08394 whole entry): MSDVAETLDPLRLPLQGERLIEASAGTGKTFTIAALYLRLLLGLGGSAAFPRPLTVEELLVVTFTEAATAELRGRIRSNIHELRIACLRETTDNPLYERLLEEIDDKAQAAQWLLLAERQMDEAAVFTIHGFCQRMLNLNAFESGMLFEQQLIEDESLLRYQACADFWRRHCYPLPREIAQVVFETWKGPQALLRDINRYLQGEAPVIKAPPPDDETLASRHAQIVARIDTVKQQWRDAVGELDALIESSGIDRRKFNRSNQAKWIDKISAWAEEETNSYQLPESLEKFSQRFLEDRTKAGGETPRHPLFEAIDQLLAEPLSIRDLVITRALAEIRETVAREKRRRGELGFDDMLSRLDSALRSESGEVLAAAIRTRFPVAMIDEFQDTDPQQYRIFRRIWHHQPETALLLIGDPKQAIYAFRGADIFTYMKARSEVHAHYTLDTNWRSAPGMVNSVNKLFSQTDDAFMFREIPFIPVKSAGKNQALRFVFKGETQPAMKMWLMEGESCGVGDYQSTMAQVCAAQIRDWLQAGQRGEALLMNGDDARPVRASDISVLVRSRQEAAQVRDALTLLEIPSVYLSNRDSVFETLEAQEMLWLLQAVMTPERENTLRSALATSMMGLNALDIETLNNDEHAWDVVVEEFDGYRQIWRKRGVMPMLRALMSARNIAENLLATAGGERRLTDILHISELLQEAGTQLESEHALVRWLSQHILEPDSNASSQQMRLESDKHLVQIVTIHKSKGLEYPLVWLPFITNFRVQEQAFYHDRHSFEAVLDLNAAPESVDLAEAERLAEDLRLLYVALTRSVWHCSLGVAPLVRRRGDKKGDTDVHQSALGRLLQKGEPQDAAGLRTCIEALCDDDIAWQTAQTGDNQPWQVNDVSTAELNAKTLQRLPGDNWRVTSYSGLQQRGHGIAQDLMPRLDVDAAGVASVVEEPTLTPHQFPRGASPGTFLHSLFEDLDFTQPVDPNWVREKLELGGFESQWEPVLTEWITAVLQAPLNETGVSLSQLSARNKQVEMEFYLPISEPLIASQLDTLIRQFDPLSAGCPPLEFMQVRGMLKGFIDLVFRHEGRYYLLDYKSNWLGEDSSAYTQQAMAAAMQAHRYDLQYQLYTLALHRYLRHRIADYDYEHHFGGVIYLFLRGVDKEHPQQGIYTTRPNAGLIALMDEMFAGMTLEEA

One may read the IC50 as the concentration needed to halve the response being measured. On to `Cc1ccc(NC(=O)C[n+]2ccn(C3=C([O-])c4ccccc4C3=O)c2)cc1`, for which the half-maximal inhibitory concentration (IC50) in [1] was 9.72 µM (active); in experiment [2] it was 14.4 µM (active); on Bcl-2-related protein A1, > 20 µM (inactive).

Take `CC(=O)Nc1ccc2nc(NC(=O)c3ccc([N+](=O)[O-])o3)sc2c1`: the IC50 (in experiment [3]; at Exodeoxyribonuclease V) was > 119 µM (inactive) in each case.

`O=S(=O)(Nc1ccc2ccccc2c1)c1ccc(Br)cc1OC(F)(F)F`: the values for the IC50 in [4] and in experiment [5] were > 10 µM (inactive) and > 10 µM (inconclusive), respectively.

On to `COc1ccc(Cl)cc1NC(=S)NCCC(c1ccccc1)c1ccccc1`, for which the figures for the half-inhibitory concentration (IC50) in experiment [6], in experiment [7] and in [8] were 11.3 µM (active), 15.9 µM (active) and 23.9 µM (active), respectively.

On to `CC1=CC(C)(C)[N+](C)=CN1c1ccccc1`, for which the IC50 was 4.28 µM (active) in experiment [9] and 2.19 µM (active) in [10].

For the origin of these results see ChEMBL document CHEMBL1201862, “PubChem BioAssay data set” (2004).
